The values below are quoted from earlier work in publication PMC10952301, “Solid‐Phase Synthesis and Biological Evaluation of Peptides ADP‐Ribosylated at Histidine” (Angewandte Chemie (International Ed. in English), 2023).

For this series the following is noted: quoted without reference to compare leaving group capacity.

Consider `c1c[nH]nn1` [1,2,3‐triazole], for which the pKa (commonly the pH at which an ionisable group is half protonated) is recorded as 9.4.
